{
  "source": "paper PMC6627374",
  "about": "“Effects of the Pentapeptide P33 on Memory and Synaptic Plasticity in APP/PS1 Transgenic Mice: A Novel Mechanism Presenting the Protein Fe65 as a Target” (International Journal of Molecular Sciences, 2019)",
  "key": {"human Aβ1–42": {"test_system": "human Aβ1–42", "assay": "ELISA, soluble Aβ1–42 in HC and CTX", "assay_type": "in vivo, human Aβ1–42 in APP/PS1 transgenic mice", "settings": "APP/PS1 mice; 5 mg∙kg^−1 i.p., six months", "method": "(§1) For this study, three-month-old male and female WT and APP/PS1 mice (n = 37) were used. Four groups were defined: WT-vehicle (physiological saline) (male n = 4; female n = 6), WT-P33 (male n = 6; female n = 5), APP/PS1-vehicle (male n = 3; female n = 5), and APP/PS1-P33 (male n = 6; female n = 2). Animals were subjected to intraperitoneal (i.p.) injections of P33 (5 mg∙kg^−1) for five days per week, over a course of six months. The mice were kept in groups under constant temperature (23 ± 0.5 °C), lighting (12-h/12-h light/dark cycle, lights on at 7:00 a.m.), and humidity (~50%). Standard mouse chow and tap water were supplied ad libitum. All behavioral experiments were performed in the light period. Handling was done daily at the same time.\nNine-month-old mice (three animals per group) were euthanized via cervical dislocation. […] To quantify the level of Aβ in the mice, we used a sandwich ELISA Kit (Innotest Amyloid-[…]) from Innogenetics (Gent, Belgium), following the instructions of the manufacturer. The absorbance values were measured at 450 nm on a 96-well plate reader (NOVOstar OPTIMA, BMG Labtech, Offenburg, Germany).\nThe results of spine density and immunohistochemistry experiments were calculated with one-way ANOVA followed by Fisher’s LSD post hoc tests. […] Data were analyzed with SPSS (IBM SPSS Statistics 24), and were expressed as the mean ± standard error of the mean (SEM). […]"}, "Aβ plaques": {"test_system": "Aβ plaques", "assay": "4G8 immunohistochemistry, Aβ plaque density", "assay_type": "in vivo, mouse", "settings": "HC and CTX; 5 mg∙kg^−1 i.p., six months; five animals per group", "method": "as §1\n(§2) Mice (five animals per group) were anaesthetized with chloral-hydrate (1 mg∙kg^−1) and perfused transcardially with PBS, followed by ice-cold 4% paraformaldehyde. The brains were removed, post-fixed in the same fixative, and immersed in a 30% sucrose solution containing 0.01% sodium-azide. […]\n(§3) Slides were scanned by a digital slide scanner (Mirax Midi, 3DHistech Ltd., Budapest, Hungary), equipped with a Pannoramic Viewer 1.15.4, CaseViewer 2.1 program and a QuantCenter, HistoQuant module (3DHistech Ltd., Budapest, Hungary). For quantification, all of the sections were analyzed. […] Antibody-positive cell types from the ROIs were counted and quantified. […]"}, "GFAP-positive astrocytes": {"test_system": "GFAP-positive astrocytes", "assay": "GFAP immunohistochemistry, astrocyte density", "assay_type": "in vivo, mouse", "settings": "APP/PS1-vehicle vs. WT-vehicle, WT-P33, APP/PS1-P33; whole HC and CTX; 5 mg∙kg^−1 i.p., six months", "method": "as §1, §2, §3"}},
  "note": "Where a SMILES comes first, the peptide text is derived from it.",
  "data": [
    {"compound": "C[C@@H](N)C(=O)N1CCC[C@@H]1C(=O)N[C@H](C)C(=O)N1CCC[C@@H]1C(=O)N[C@H](CCC(=O)O)C(N)=O", "note": "[P33] (HELM PEPTIDE1{[dA].[dP].[dA].[dP].[dE].[am]}$$$$V2.0)", "values": [
      {"measurement": "soluble Aβ1–42, effect of P33 (in words)", "setting": "human Aβ1–42", "result": "decreased level of Aβ1–42 in the APP/PS1 mice"},
      {"measurement": "Aβ plaque density, effect of P33 (in words)", "setting": "Aβ plaques", "result": "significantly decreased the plaque density in APP/PS1-P33 mice"},
      {"measurement": "density of hyperreactive (GFAP-positive) astrocytes (in words)", "setting": "GFAP-positive astrocytes", "result": "higher in the whole HC and CTX of the APP/PS1-vehicle group, than in the other three groups"}
    ]}
  ]
}
